What was measured:
Format in all cases: in vivo
[1] = test system: Diabrotica Balteata (Corn Root Worm); assay: Activity against Diabrotica balteata (corn root worm), maize sprouts on agar; conditions: 96 h, application rate of 200 ppm, L2 larvae, 4 days after infestation, in comparison to untreated samples, read-out: effect in at least one of the two categories (mortality or growth inhibition)
Method: Example B2: Activity Against Diabrotica Balteata (Corn Root Worm)
Maize sprouts placed onto an agar layer in 24-well microtiter plates were treated with aqueous test solutions prepared from 10′000 ppm DMSO stock solutions by spraying. After drying, the plates were infested with L2 larvae (6 to 10 per well). The samples were assessed for mortality and growth inhibition in comparison to untreated samples 4 days after infestation.

[2] = test system: Plutella xylostella (Diamond Back Moth); assay: Activity against Plutella xylostella (diamond back moth), artificial diet in 24-well plates; conditions: 192 h, application rate of 200 ppm, Plutella eggs, 8 days after infestation, in comparison to untreated samples, read-out: effect in at least one of the two categories (mortality or growth inhibition)
Method: Example B6: Activity Against Plutella xylostella (Diamond Back Moth)
24-well microtiter plates with artificial diet were treated with aqueous test solutions prepared from 10′000 ppm DMSO stock solutions by pipetting. After drying, Plutella eggs were pipetted through a plastic stencil onto a gel blotting paper and the plate was closed with it. The samples were assessed for mortality and growth inhibition in comparison to untreated samples 8 days after infestation.

[3] = test system: Bemisia tabaci (Cotton White Fly); assay: Activity against Bemisia tabaci (cotton white fly), cotton leaf discs; conditions: foliar, 144 h, application rate of 200 ppm, adult white flies, 6 days after incubation
Method: Example B8: Activity Against Bemisia tabaci (Cotton White Fly)
Cotton leaf discs were placed on agar in 24-well microtiter plates and sprayed with aqueous test solutions prepared from 10′000 ppm DMSO stock solutions. After drying the leaf discs were infested with adult white flies. The samples were checked for mortality 6 days after incubation.

[4] = test system: Chilo suppressalis (Striped Rice Stemborer); assay: Activity against Chilo suppressalis (striped rice stemborer), artificial diet in 24-well plates; conditions: 144 h, application rate of 200 ppm, L2 larvae, 6 days after infestation, in comparison to untreated samples, read-out: control (at least one of mortality, anti-feedant effect, growth inhibition)
Method: Example B1: Activity Against Chilo suppressalis (Striped Rice Stemborer)
24-well microtiter plates with artificial diet were treated with aqueous test solutions prepared from 10′000 ppm DMSO stock solutions by pipetting. After drying, the plates were infested with L2 larvae (6-8 per well). The samples were assessed for mortality, anti-feeding effect, and growth inhibition in comparison to untreated samples 6 days after infestation. Control of Chilo suppressalis by a test sample is given when at least one of the categories mortality, anti-feedant effect, and growth inhibition is higher than the untreated sample.

[5] = test system: Spodoptera littoralis (Egyptian Cotton Leaf Worm); assay: Activity against Spodoptera littoralis (Egyptian cotton leaf worm), cotton leaf discs; conditions: foliar, 72 h, application rate of 200 ppm, L1 larvae, 3 days after infestation, in comparison to untreated samples, read-out: control (at least one of mortality, anti-feedant effect, growth inhibition)
Method: Example B7: Activity Against Spodoptera littoralis (Egyptian Cotton Leaf Worm)
Cotton leaf discs were placed onto agar in 24-well microtiter plates and sprayed with aqueous test solutions prepared from 10′000 ppm DMSO stock solutions. After drying the leaf discs were infested with five L1 larvae. The samples were assessed for mortality, anti-feeding effect, and growth inhibition in comparison to untreated samples 3 days after infestation. Control of Spodoptera littoralis by a test sample is given when at least one of the categories mortality, anti-feedant effect, and growth inhibition is higher than the untreated sample.

[6] = test system: Carpocapsa (Cydia) Pomonella (Codling Moth); assay: Activity against Carpocapsa (Cydia) pomonella (codling moth), larvicide, feeding/contact, diet cubes; conditions: 336 h, application rate of 12.5 ppm, L1 larvae, 14 days after infestation, 26-27° C.
Method: Example B9: Activity Against Carpocapsa (Cydia) Pomonella (Codling Moth)) Larvicide, Feeding/Contact
Diet cubes coated with paraffin were sprayed with diluted test solutions in an application chamber. After drying off the treated cubes (10 replicates) were infested with 1 L1 larvae. Samples were incubated at 26-27° C. and checked 14 days after infestation for mortality and growth inhibition.

[7] = test system: Myzus persicae (Green Peach Aphid); assay: Activity against Myzus persicae (green peach aphid), feeding/contact activity, sunflower leaf discs; conditions: foliar, 144 h, application rate of 200 ppm, aphid population of mixed ages, 6 days after infestation
Method: Example B5: Activity Against Myzus persicae (Green Peach Aphid) Feeding/Contact Activity
Sunflower leaf discs were placed onto agar in a 24-well microtiter plate and sprayed with aqueous test solutions prepared from 10′000 ppm DMSO stock solutions. After drying, the leaf discs were infested with an aphid population of mixed ages. The samples were assessed for mortality 6 days after infestation.

[8] = test system: Frankliniella occidentalis (Western Flower Thrips); assay: Activity against Frankliniella occidentalis (western flower thrips), feeding/contact activity, sunflower leaf discs; conditions: foliar, 168 h, application rate of 200 ppm, population of mixed ages, 7 days after infestation
Method: Example B4: Activity Against Frankliniella occidentalis (Western Flower Thrips) Feeding/Contact Activity
Sunflower leaf discs were placed on agar in 24-well microtiter plates and sprayed with aqueous test solutions prepared from […] stock solutions. After drying the leaf discs were infested with a Frankliniella population of mixed ages. The samples were assessed for mortality 7 days after infestation.

[9] = test system: Euschistus heros (Neotropical Brown Stink Bug); assay: Activity against Euschistus heros (neotropical brown stink bug), soybean leaves on agar; conditions: 120 h, application rate of 200 ppm, N2 nymphs, 5 days after infestation, in comparison to untreated samples, read-out: effect in at least one of the two categories (mortality or growth inhibition)
Method: Example B3: Activity Against Euschistus heros (Neotropical Brown Stink Bug)
Soybean leaves on agar in 24-well microtiter plates were sprayed with aqueous test solutions prepared from 10′000 ppm DMSO stock solutions. After drying the leaves were infested with N2 nymphs. The samples were assessed for mortality and growth inhibition in comparison to untreated samples 5 days after infestation.

CCS(=O)(=O)c1c(N2Cc3ccc(C4(C#N)CC4)cc3C2=O)nn2ccc(C(F)(F)F)cc12 [P3, 1-[2-[3-ethylsulfonyl-5-(trifluoromethyl)pyrazolo[1,5-a]pyridin-2-yl]-3-oxo-isoindolin-5-yl]cyclopropanecarbonitrile]
≥ 80%: percent effect (mortality or growth inhibition) at 200 ppm [1] | percent effect (mortality or growth inhibition) at 200 ppm [2] | mortality at 200 ppm [3] | percent control (mortality, anti-feedant effect or growth inhibition) at 200 ppm [4] | percent control (mortality, anti-feedant effect or growth inhibition) at 200 ppm [5]

CCS(=O)(=O)c1c(N2Cc3ccc(C4(C#N)CC4)cc3C2=O)nc2ccc(C(C)(F)F)cn12 [P4, 1-[2-[6-(1,1-difluoroethyl)-3-ethylsulfonyl-imidazo[1,2-a]pyridin-2-yl]-3-oxo-isoindolin-5-yl]cyclopropanecarbonitrile]
≥ 80%: mortality at 12.5 ppm [6] | percent effect (mortality or growth inhibition) at 200 ppm [1] | mortality at 200 ppm [7] | percent effect (mortality or growth inhibition) at 200 ppm [2] | mortality at 200 ppm [3] | percent control (mortality, anti-feedant effect or growth inhibition) at 200 ppm [4] | percent control (mortality, anti-feedant effect or growth inhibition) at 200 ppm [5]

CCS(=O)(=O)c1c(N2Cc3ccc(C4(C#N)CC4)cc3C2=O)nc2ccc(C3(C#N)CC3)cn12 [P6, 1-[2-[6-(1-cyanocyclopropyl)-3-ethylsulfonyl-imidazo[1,2-a]pyridin-2-yl]-3-oxo-isoindolin-5-yl]cyclopropanecarbonitrile]
≥ 80%: mortality at 200 ppm [8] | mortality at 12.5 ppm [6] | percent effect (mortality or growth inhibition) at 200 ppm [1] | mortality at 200 ppm [7] | percent effect (mortality or growth inhibition) at 200 ppm [2] | mortality at 200 ppm [3] | percent control (mortality, anti-feedant effect or growth inhibition) at 200 ppm [4] | percent control (mortality, anti-feedant effect or growth inhibition) at 200 ppm [5]

CCS(=O)(=O)c1c(N2Cc3cnc(C4CC4)cc3C2=O)nc2ccc(C(F)(F)F)cn12 [P10, 6-cyclopropyl-2-[3-ethylsulfonyl-6-(trifluoromethyl)imidazo[1,2-a]pyridin-2-yl]-3H-pyrrolo[3,4-c]pyridin-1-one]
≥ 80%: percent effect (mortality or growth inhibition) at 200 ppm [1] | percent effect (mortality or growth inhibition) at 200 ppm [2] | percent control (mortality, anti-feedant effect or growth inhibition) at 200 ppm [4] | percent control (mortality, anti-feedant effect or growth inhibition) at 200 ppm [5]

CCS(=O)(=O)c1c(N2Cc3ccc(C4(C#N)CC4)cc3C2=O)nc2ccc(C(F)(F)F)cn12 [P1, 1-[2-[3-ethylsulfonyl-6-(trifluoromethyl)imidazo[1,2-a]pyridin-2-yl]-3-oxo-isoindolin-5-yl]cyclopropanecarbonitrile]
≥ 80%: mortality at 200 ppm [8] | mortality at 12.5 ppm [6] | percent effect (mortality or growth inhibition) at 200 ppm [1] | mortality at 200 ppm [7] | percent effect (mortality or growth inhibition) at 200 ppm [2] | percent effect (mortality or growth inhibition) at 200 ppm [9] | percent control (mortality, anti-feedant effect or growth inhibition) at 200 ppm [4] | percent control (mortality, anti-feedant effect or growth inhibition) at 200 ppm [5]

CCS(=O)(=O)c1c(N2Cc3ccc(C4(C#N)CC4)cc3C2=O)nc2ccc(C3CC3)cn12 [P5, 1-[2-(6-cyclopropyl-3-ethylsulfonyl-imidazo[1,2-a]pyridin-2-yl)-3-oxo-isoindolin-5-yl]cyclopropanecarbonitrile]
≥ 80%: percent effect (mortality or growth inhibition) at 200 ppm [1] | percent effect (mortality or growth inhibition) at 200 ppm [2] | percent control (mortality, anti-feedant effect or growth inhibition) at 200 ppm [4] | percent control (mortality, anti-feedant effect or growth inhibition) at 200 ppm [5]

CCS(=O)(=O)c1c(N2Cc3ccc(C4(C#N)CC4)cc3C2=O)nc2ccc(C(C)(C)C#N)cn12 [P7, 1-[2-[6-(1-cyano-1-methyl-ethyl)-3-ethylsulfonyl-imidazo[1,2-a]pyridin-2-yl]-3-oxo-isoindolin-5-yl]cyclopropanecarbonitrile]
≥ 80%: percent effect (mortality or growth inhibition) at 200 ppm [1] | percent effect (mortality or growth inhibition) at 200 ppm [2] | percent control (mortality, anti-feedant effect or growth inhibition) at 200 ppm [4] | percent control (mortality, anti-feedant effect or growth inhibition) at 200 ppm [5]

CCS(=O)(=O)c1c(N2Cc3ncc(C4CC4)cc3C2=O)nc2ccc(C(F)(F)F)cn12 [P11, 3-cyclopropyl-6-[3-ethylsulfonyl-6-(trifluoromethyl)imidazo[1,2-a]pyridin-2-yl]-7H-pyrrolo[3,4-b]pyridin-5-one]
≥ 80%: percent effect (mortality or growth inhibition) at 200 ppm [2] | percent control (mortality, anti-feedant effect or growth inhibition) at 200 ppm [4] | percent control (mortality, anti-feedant effect or growth inhibition) at 200 ppm [5]

CCS(=O)(=O)c1c(N2Cc3ccc(OC(C)(C)C#N)cc3C2=O)nc2ccc(C(F)(F)F)cn12 [P9, 2-[2-[3-ethylsulfonyl-6-(trifluoromethyl)imidazo[1,2-a]pyridin-2-yl]-3-oxo-isoindolin-5-yl]oxy-2-methyl-propanenitrile]
≥ 80%: percent effect (mortality or growth inhibition) at 200 ppm [1] | mortality at 200 ppm [7] | percent effect (mortality or growth inhibition) at 200 ppm [2] | mortality at 200 ppm [3] | percent control (mortality, anti-feedant effect or growth inhibition) at 200 ppm [4] | percent control (mortality, anti-feedant effect or growth inhibition) at 200 ppm [5]

CCS(=O)(=O)c1c(N2Cc3ccc(S(=O)(=O)C4CC4)cc3C2=O)nc2ccc(C(F)(F)F)cn12 [P8, 6-cyclopropylsulfonyl-2-[3-ethylsulfonyl-6-(trifluoromethyl)imidazo[1,2-a]pyridin-2-yl]isoindolin-1-one]
≥ 80%: mortality at 12.5 ppm [6] | percent effect (mortality or growth inhibition) at 200 ppm [1] | mortality at 200 ppm [7] | percent effect (mortality or growth inhibition) at 200 ppm [2] | percent control (mortality, anti-feedant effect or growth inhibition) at 200 ppm [4] | percent control (mortality, anti-feedant effect or growth inhibition) at 200 ppm [5]

CCS(=O)(=O)c1c(N2Cc3ccc(C4CC4)cc3C2=O)nc2ccc(C(F)(F)F)cn12 [P12, 6-cyclopropyl-2-[3-ethylsulfonyl-6-(trifluoromethyl)imidazo[1,2-a]pyridin-2-yl]isoindolin-1-one]
≥ 80%: percent effect (mortality or growth inhibition) at 200 ppm [1] | percent effect (mortality or growth inhibition) at 200 ppm [2] | percent control (mortality, anti-feedant effect or growth inhibition) at 200 ppm [4] | percent control (mortality, anti-feedant effect or growth inhibition) at 200 ppm [5]

Reference: patent US20230303565A1, “PESTICIDALLY ACTIVE HETEROCYCLIC DERIVATIVES WITH SULFUR CONTAINING SUBSTITUENTS” (SYNGENTA CROP PROTECTION AG, priority 2020, published 2023)
